Results as given in US20120238630A1, “COMPOSITIONS COMPRISING NONSTEROIDAL ANTI - INFLAMMATORY DRUGS” (Alfa Wassermann S.P.A., priority 2009, published 2012).

Experiment: Bioavailability / systemic FP plasma concentration after oral nebulization of the liquid composition containing FP
Assay type: in vivo, human
Experimental: The solutions have been administered to 26 healthy volunteers, among whom 16 were males and 10 females, aged between 18 and 55.
The healthy volunteers received the pharmaceutical composition prepared according to Example 1 in two 200 μl nebulizations three times a day, for a seven-day period, then a single administration on the eighth day.
[…]
During the period of administration of the composition object of the present invention, blood samples were taken before each administration and on days 1, 4, 6, 7 and 8.
The plasma concentration was determined for each patient before the first dose and, successively, in the morning of the days 1, 4, 6, 7 and 8 and after 1, 2, 3, 4, 6, 8, 10, 12, 16 and 24 hours since the last treatment.
Each sample was moved into a test tube containing heparin and centrifuged, and the plasma was divided into 500 μl aliquots and freezed at −80° C.
The following parameters were determined:
Tmax: time wherein Cmax is reached.
AUC: area subtended to the concentration-time curve calculated by means of the linear trapezoidal rule.

[1] = after the last administration (day 8)

Substance: 2-(2-fluoro-4-phenyl-phenyl) propionic acid [FP]
- FP average plasma concentrations (1 hour after the last administration (day 8)): 0.182 µg/mL
- FP average plasma concentrations (2 hours after the last administration (day 8)): 0.144 µg/mL
- FP average plasma concentrations (3 hours after the last administration (day 8)): 0.115 µg/mL
- FP average plasma concentrations (4 hours after the last administration (day 8)): 0.096 µg/mL
- FP average plasma concentrations (6 hours after the last administration (day 8)): 0.067 µg/mL
- FP average plasma concentrations (8 hours after the last administration (day 8)): 0.045 µg/mL
- FP average plasma concentrations (10 hours after the last administration (day 8)): 0.029 µg/mL
- FP average plasma concentrations (12 hours after the last administration (day 8)): 0.020 µg/mL
- FP average plasma concentrations (16 hours after the last administration (day 8)): 0.008 µg/mL
- FP average plasma concentrations (24 hours after the last administration (day 8)): 0.001 µg/mL
- FP systemic concentrations (after repeated oral nebulization, healthy volunteers): very low
- AUC0-inf. [1]: 1140 ng·h/mL
- AUC0-inf. higher than the AUC at the last point [1]: ca. 20%
- Cmax (after the last administration (day 8), Example 1 composition nebulized in oral cavity, healthy volunteers): 182 ± 50 ng/mL
- Tmax (after the last administration (day 8), Example 1 composition, healthy volunteers): 1 h
- AUC0-24 (after the last administration (day 8), linear trapezoidal rule): 940 ng·h/mL
- FP average plasma concentrations (day 1, time 0 (before the first dose), Example 1 composition, 26 healthy volunteers): 0.000 µg/mL
- FP average plasma concentrations (day 4, time 0, two 200 μl nebulizations three times a day, Example 1 composition): 0.043 µg/mL
- FP average plasma concentrations (day 6, time 0, two 200 μl nebulizations three times a day, Example 1 composition): 0.042 µg/mL
- FP average plasma concentrations (day 7, time 0, two 200 μl nebulizations three times a day, Example 1 composition): 0.039 µg/mL
- FP average plasma concentrations (day 8, time 0, after seven days of two 200 μl nebulizations three times a day, Example 1 composition): 0.040 µg/mL
- amount absorbed, times lower than solutions of the same concentration administered by oral route (oropharyngeal application versus literature oral data (Stalker 1991; Gonzalez-Younes 1991)): about 10 times
- FP accumulation in plasma after repeated administrations (three times a day for seven days, plasma on days 1, 4, 6, 7 and 8): no FP accumulation
